Experimental data reported in patent publication US10947271B2, “Antibacterial agents” (THE UNIVERSITY OF QUEENSLAND, priority 2014, dated 2021).

Assays:
Type in all cases: cell-based
Conditions in all cases: 24 h incubation, visual reading
[1] = tested on: Staphylococcus aureus MRSA ATCC 43300; assay: MIC assay, S. aureus MRSA ATCC 43300
Procedure: (§1) Antimicrobial activity of compounds was tested against a number of bacterial strains, including Staphylococcus aureus (MRSA ATCC 43300, GISA NRS17, VISA NRS1, MRSA clinical isolate, daptomycin resistant clinical isolate), Streptococcus pneumoniae (MDR ATCC 700677), Enterococcus faecalis (VanA clinical isolate) and Enterococcus faecium (MDR Van A ATCC 51559).
(§2) All compounds were prepared to 160 μg/ml solution in water from a stock solution of 1 mM concentration.
(§3) The compounds, along with standard antibiotics were serially diluted twofold across the wells of 96-well non-binding surface plates (NBS, Corning). Standards ranged from 64 μg/ml to 0.03 μg/ml and compounds from 8 μg/ml to 0.003 μg/ml with final volumes of 50 μL per well. Gram positive bacteria were cultured in Muller Hinton broth (MHB) (Bacto laboratories, Cat. no. 211443) at 37° C. overnight. A sample of each culture was then diluted 40-fold in fresh MHB broth and incubated at 37° C. for 2-3 hrs. The resultant mid-log phase cultures were diluted to the final concentration of 5×10e5 CFU/mL, then 50 μL was added to each well of the compound-containing 96-well plates. All the plates were covered and incubated at 37° C. for 24 h. MICs were the lowest concentration showing no visible growth.
(§4) MICs were determined visually at 24 hr incubation and the MIC was defined as the lowest concentration with which no growth was visible after incubation. Both MIC and MBC were determined by visual inspection only.

[2] = tested on: Streptococcus pneumoniae MDR ATCC 700677; assay: MIC assay, S. pneumoniae MDR ATCC 700677
Procedure: as §1, §2, §3, §4

[3] = tested on: Enterococcus faecium MDR Van A ATCC 51559; assay: MIC assay, E. faecium MDR Van A ATCC 51559
Procedure: as §1, §2, §3, §4

SMILES | Minimum Inhibitory Concentration (MIC) Staph. aureus ATCC43300 [1] | Minimum Inhibitory Concentration (MIC) S. pneumoniae ATCC 700677 [2] | Minimum Inhibitory Concentration (MIC) E. faecium ATCC51559 [3]
CNC(CC(C)C)C(=O)NC1C(=O)NC(CC(N)=O)C(=O)NC2C(=O)NC3C(=O)NC(C(=O)NC(C(=O)NCCCCC(NC(=O)C(CCCCN)NC(=O)C(CCCCN)NC(=O)C(CCCCN)NC(=O)c4ccc(Oc5ccccc5)cc4)C(=O)O)c4cc(O)cc(O)c4-c4cc3ccc4O)C(O)c3ccc(c(Cl)c3)Oc3cc2cc(c3OC2OC(CO)C(O)C(O)C2OC2CC(C)(N)C(O)C(C)O2)Oc2ccc(cc2Cl)C1O (centres unmarked) [MCC_000194] | xxx (xxx = 0.1-<1) | xxx (xxx = 0.1-<1) | x (x = >4)
CCCCCCCCCCCCCC(=O)N[C@@H](CCCCN)C(=O)N[C@@H](CCCCN)C(=O)N[C@@H](CCCCNC(=O)[C@H]1NC(=O)[C@H]2NC(=O)[C@H](NC(=O)[C@@H]3NC(=O)[C@H](CC(N)=O)NC(=O)[C@H](NC(=O)[C@@H](CC(C)C)NC)[C@H](O)c4ccc(c(Cl)c4)Oc4cc3cc(c4O[C@@H]3O[C@H](CO)[C@@H](O)[C@H](O)[C@H]3O[C@H]3C[C@](C)(N)[C@H](O)[C@H](C)O3)Oc3ccc(cc3Cl)[C@H]2O)c2ccc(O)c(c2)-c2c(O)cc(O)cc21)C(=O)NC [MCC_000224] | xxxxx (xxxxx = <0.01) | xxxxx (xxxxx = <0.01) | xxx (xxx = 0.1-<1)
CCCCCCCCCCC(=O)N[C@@H](CCCCN)C(=O)N[C@@H](CCCCN)C(=O)N[C@@H](CCCCNC(=O)CNC(=O)[C@H]1NC(=O)[C@H]2NC(=O)[C@H](NC(=O)[C@@H]3NC(=O)[C@H](CC(N)=O)NC(=O)[C@H](NC(=O)[C@@H](CC(C)C)NC)[C@H](O)c4ccc(c(Cl)c4)Oc4cc3cc(c4O[C@@H]3O[C@H](CO)[C@@H](O)[C@H](O)[C@H]3O[C@H]3C[C@](C)(N)[C@H](O)[C@H](C)O3)Oc3ccc(cc3Cl)[C@H]2O)c2ccc(O)c(c2)-c2c(O)cc(O)cc21)C(=O)O [MCC_000225] | xxx (xxx = 0.1-<1) | xxx (xxx = 0.1-<1) | x (x = >4)
CCCCCCCCCCCCCC(=O)N[C@@H](CCCN)C(=O)N[C@@H](CCCN)C(=O)NCC(=O)NCCNC(=O)[C@H]1NC(=O)[C@H]2NC(=O)[C@H](NC(=O)[C@@H]3NC(=O)[C@H](CC(N)=O)NC(=O)[C@H](NC(=O)[C@@H](CC(C)C)NC)[C@H](O)c4ccc(c(Cl)c4)Oc4cc3cc(c4O[C@@H]3O[C@H](CO)[C@@H](O)[C@H](O)[C@H]3O[C@H]3C[C@](C)(N)[C@H](O)[C@H](C)O3)Oc3ccc(cc3Cl)[C@H]2O)c2ccc(O)c(c2)-c2c(O)cc(O)cc21 [MCC_000228] | xxxxx (xxxxx = <0.01) | xxxxx (xxxxx = <0.01) | xxxx (xxxx = 0.01-<0.1)
CCCCCCCCCCCCCC(=O)NCC(=O)N[C@@H](CO)C(=O)N[C@@H](CCCCN)C(=O)N[C@@H](CCCCN)C(=O)N[C@@H](CCCCN)C(=O)N[C@@H](CCCCNC(=O)[C@H]1NC(=O)[C@H]2NC(=O)[C@H](NC(=O)[C@@H]3NC(=O)[C@H](CC(N)=O)NC(=O)[C@H](NC(=O)[C@@H](CC(C)C)NC)[C@H](O)c4ccc(c(Cl)c4)Oc4cc3cc(c4O[C@@H]3O[C@H](CO)[C@@H](O)[C@H](O)[C@H]3O[C@H]3C[C@](C)(N)[C@H](O)[C@H](C)O3)Oc3ccc(cc3Cl)[C@H]2O)c2ccc(O)c(c2)-c2c(O)cc(O)cc21)C(=O)O [MCC_000380] | xxxx (xxxx = 0.01-<0.1) | xxxxx (xxxxx = <0.01) | –
